According to US8802597B2, “Herbicidal pyrimidines” (E I du Pont de Nemours and Company, priority 2003, dated 2014):

Legend:
Assay in all cases: Test E flooded paddy water application
Assay type in all cases: in vivo
Details in all cases: Flood, 21 days, scale 0 to 100 (0 no effect, 100 complete control)
[1] = test system: barnyardgrass (Echinochloa crus-galli)
Summary of the method: (§1)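 Greenhouse pots of Tama silt loam with weeds and rice at 2.0–2.5-leaf stage, flooded to 3 cm; compounds applied directly into paddy water, depth maintained. Visual rating versus untreated controls after 21 days, 0 (no effect) to 100 (complete control); 29.5/26.7 °C, 16-h photoperiod.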

[2] = test system: bearded (brdd.) sprangletop (Leptochloa fusca ssp. fascicularis)
Summary of the method: as §1

[3] = test system: ducksalad (Heteranthera limosa)
Summary of the method: as §1

[4] = test system: early watergrass (Echinochloa oryzoides)
Summary of the method: as §1

[5] = test system: junglerice (Echinochloa colona)
Summary of the method: as §1

[6] = test system: purple redstem (Ammannia coccinea)
Summary of the method: as §1

[7] = test system: smallflower umbrella sedge (Cyperus difformis)
Summary of the method: as §1

[8] = test system: transplanted rice seedlings (Oryza sativa cv. ‘Japonica-M202’)
Summary of the method: as §1

Cc1ccc(-c2nc(N)c(Cl)c(C(=O)O)n2)cc1 [Compound 91]
0: Barnyardgrass plant response rating ([1]; 32 g ai/ha) | Plant response rating, Barnyardgrass ([1]; 16 g ai/ha) | Sprangletop, Brdd. plant response rating ([2]; 32 g ai/ha) | Sprangletop, Brdd. plant response rating ([2]; 64 g ai/ha) | Watergrass, Early plant response rating ([4]; 32 g ai/ha) | Watergrass, Early plant response rating ([4]; 64 g ai/ha) | Watergrass, Early plant response rating ([4]; 125 g ai/ha) | Watergrass, Early plant response rating ([4]; 250 g ai/ha) | Plant response rating, Watergrass, Early ([4]; 16 g ai/ha) | Junglerice plant response rating ([5]; 32 g ai/ha) | Junglerice plant response rating ([5]; 64 g ai/ha) | Junglerice plant response rating ([5]; 125 g ai/ha) | Plant response rating, Junglerice ([5]; 16 g ai/ha) | Redstem plant response rating ([6]; 32 g ai/ha) | Redstem plant response rating ([6]; 64 g ai/ha) | Plant response rating, Redstem ([6]; 16 g ai/ha) | Sedge, Umbrella plant response rating ([7]; 32 g ai/ha) | Plant response rating, Sedge, Umbrella ([7]; 16 g ai/ha) | Rice, Transplanted plant response rating ([8]; 32 g ai/ha) | Rice, Transplanted plant response rating ([8]; 64 g ai/ha) | Rice, Transplanted plant response rating ([8]; 125 g ai/ha) | Plant response rating, Rice, Transplanted ([8]; 16 g ai/ha)
50: Redstem plant response rating ([6]; 250 g ai/ha)
30: Sprangletop, Brdd. plant response rating ([2]; 125 g ai/ha) | Sprangletop, Brdd. plant response rating ([2]; 250 g ai/ha) | Redstem plant response rating ([6]; 125 g ai/ha) | Sedge, Umbrella plant response rating ([7]; 64 g ai/ha)
100: Ducksalad plant response rating ([3]; 32 g ai/ha) | Ducksalad plant response rating ([3]; 64 g ai/ha) | Ducksalad plant response rating ([3]; 125 g ai/ha) | Ducksalad plant response rating ([3]; 250 g ai/ha) | Plant response rating, Ducksalad ([3]; 16 g ai/ha) | Sedge, Umbrella plant response rating ([7]; 125 g ai/ha) | Sedge, Umbrella plant response rating ([7]; 250 g ai/ha)
70: Junglerice plant response rating ([5]; 250 g ai/ha)
10: Barnyardgrass plant response rating ([1]; 64 g ai/ha) | Barnyardgrass plant response rating ([1]; 125 g ai/ha) | Barnyardgrass plant response rating ([1]; 250 g ai/ha) | Rice, Transplanted plant response rating ([8]; 250 g ai/ha)

COC(=O)c1nc(-c2ccc(C(F)(F)F)cc2)nc(N)c1Cl [Compound 44]
30: Sprangletop, Brdd. plant response rating ([2]; 64 g ai/ha) | Sprangletop, Brdd. plant response rating ([2]; 125 g ai/ha)
10: Barnyardgrass plant response rating ([1]; 500 g ai/ha) | Redstem plant response rating ([6]; 64 g ai/ha)
90: Sedge, Umbrella plant response rating ([7]; 64 g ai/ha) | Sedge, Umbrella plant response rating ([7]; 125 g ai/ha)
100: Ducksalad plant response rating ([3]; 32 g ai/ha) | Ducksalad plant response rating ([3]; 64 g ai/ha) | Ducksalad plant response rating ([3]; 125 g ai/ha) | Ducksalad plant response rating ([3]; 250 g ai/ha) | Ducksalad plant response rating ([3]; 500 g ai/ha) | Sedge, Umbrella plant response rating ([7]; 250 g ai/ha) | Sedge, Umbrella plant response rating ([7]; 500 g ai/ha)
0: Barnyardgrass plant response rating ([1]; 32 g ai/ha) | Barnyardgrass plant response rating ([1]; 64 g ai/ha) | Barnyardgrass plant response rating ([1]; 125 g ai/ha) | Barnyardgrass plant response rating ([1]; 250 g ai/ha) | Watergrass, Early plant response rating ([4]; 32 g ai/ha) | Watergrass, Early plant response rating ([4]; 64 g ai/ha) | Watergrass, Early plant response rating ([4]; 125 g ai/ha) | Watergrass, Early plant response rating ([4]; 250 g ai/ha) | Watergrass, Early plant response rating ([4]; 500 g ai/ha) | Junglerice plant response rating ([5]; 32 g ai/ha) | Junglerice plant response rating ([5]; 64 g ai/ha) | Junglerice plant response rating ([5]; 125 g ai/ha) | Redstem plant response rating ([6]; 32 g ai/ha) | Rice, Transplanted plant response rating ([8]; 32 g ai/ha) | Rice, Transplanted plant response rating ([8]; 64 g ai/ha) | Rice, Transplanted plant response rating ([8]; 125 g ai/ha) | Rice, Transplanted plant response rating ([8]; 250 g ai/ha) | Rice, Transplanted plant response rating ([8]; 500 g ai/ha)
95: Sprangletop, Brdd. plant response rating ([2]; 500 g ai/ha)
20: Sprangletop, Brdd. plant response rating ([2]; 32 g ai/ha) | Junglerice plant response rating ([5]; 250 g ai/ha) | Junglerice plant response rating ([5]; 500 g ai/ha) | Redstem plant response rating ([6]; 125 g ai/ha) | Sedge, Umbrella plant response rating ([7]; 32 g ai/ha)
50: Sprangletop, Brdd. plant response rating ([2]; 250 g ai/ha) | Redstem plant response rating ([6]; 250 g ai/ha)
75: Redstem plant response rating ([6]; 500 g ai/ha)
